Measured values from ChEMBL document CHEMBL1201862, “PubChem BioAssay data set” (2004).
The source made the active and inactive calls.

Legend:
[1] = Trypanosoma cruzi growth suppression in host cells – NIH3T3 host cells, beta-gal luminescence, confirmation (AID 2044); assay type: functional, cell-based;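 further: intracellular parasites grown in NIH/3T3 mouse fibroblasts as host cells; luminescent beta-galactosidase reporter signal from transgenic T. cruzi replicating inside host cells; inhibitors lower the luminescence signal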
[2] = system: Streptococcus sp. 'group A'; experiment: Streptococcus pyogenes SK(-)GAS viability under kanamycin – luminescence, BacTiterGlo, confirmation, counter-screen for streptokinase expression inhibitor project, dose response (AID 1900); assay type: functional, organism-based
[3] = system: H9c2; experiment: cells; assay type: functional, cell-based; details: Rattus norvegicus, H9c2, Myocardium;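 further: confirmatory concentration-response retest of ultra-high-throughput screening hits for modulation of myocardial damage; cell death induced by hydrogen peroxide oxidative stress; compound pretreatment for 60 min then peroxide exposure for 2 h; potency is for protecting the cells against peroxide damage rather than for killing them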
[4] = NIH3T3 cell viability loss – ATP luminescence, mouse fibroblasts, counter-screen, dose response (AID 2010); assay type: functional, cell-based;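 further: cells exposed to compound for about 90 hours before reading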
[5] = system: Streptococcus; experiment: GAS UMAA2166 growth inhibition – luminescence, BacTiterGlo, counter-screen for streptokinase expression inhibitor project, dose response (AID 1915); assay type: functional, organism-based;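 further: potency for reduction of bacterial viability or growth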
[6] = target: Beta-galactosidase (Escherichia coli, UniProt Q8VNN2); experiment: detection-enzyme interference by beta-gal modulators – biochemical, E. coli enzyme, set 3, artefact control for CCR6 antagonist project, dose response (AID 504712); assay type: functional
[7] = target: T1, E3 ubiquitin-protein ligase XIAP (Homo sapiens, UniProt P98170); experiment: small molecules displacing peptide from XIAP – biochemical, IAP family, fluorescence polarization (AID 1018); assay type: functional
[8] = target: T1, E3 ubiquitin-protein ligase XIAP; experiment: Counter Screen using XIAP-Bir3 for Chemical Antagonists of Bir1/2 domains of IAP-family anti-apoptotic proteins. [Related pubchem assays (depositor defined):AID1018, AID1449, AID1514, AID1638, AID1749, AID1750, AID488957, AID488963]
[9] = Luminescence Cell-Based Dose HTS Response to Identify Inhibitors of 5'UTR Stem-Loop Driven Prion Protein mRNA Translation in H4-C Neuroglioblastoma Cells. [Related pubchem assays (depositor defined):AID1814, AID1827]; assay type: functional
[10] = Luminescence Cell-Based Dose Response HTS to Identify Activators of Luciferase Translation or Activity in H4-C Neuroglioblastoma Cells. [Related pubchem assays: 1829 (Project Summary), 1814 (Primary HTS)]; assay type: functional
[11] = Luminescence Cell-Based Dose Confirmation HTS to Identify Inhibitors of 5'UTR Stem-Loop Driven Alpha-Synuclein mRNA Translation in H4 Neuroglioblastoma Cells. [Related pubchem assays: 1827 (Project Summary), 1813 (Primary HTS)]; assay type: functional
[12] = Luminescence Cell-Based Dose Response HTS to Identify Inhibitors of Luciferase Translation or Activity in H4-C Neuroglioblastoma Cells. [Related pubchem assays: 1813 (Primary HTS), 1827 (Project Summary)]; assay type: functional
[13] = Luminescence Cell-Based Dose Response HTS to Identify Activators of 5'UTR Stem-Loop Driven Prion Protein mRNA Translation in H4-C Neuroglioblastoma Cells. [Related pubchem assays: 1829 (Project Summary), 1814 (Primary HTS)]; assay type: functional
[14] = Luminescence Cell-Based Dose Response HTS to Identify Inhibitors of 5'UTR Stem-Loop Driven Prion Protein mRNA Translation in H4 Neuroglioblastoma Cells. [Related pubchem assays: 1827 (Project Summary), 1813 (Primary HTS)]; assay type: functional
[15] = luciferase reporter signal suppression in cells – H4 neuroglioma cells, luminescence, dose response (AID 1990); assay type: functional, cell-based
[16] = system: BJ; experiment: growth inhibition of engineered Ras-driven BJ cells – cell-based, alamar blue fluorescence, cherrypicked samples, dose response (AID 2631); assay type: functional; details: Homo sapiens;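 further: confirmatory dose-response assay in RAS-dependent BJ fibroblasts engineered with TERT, LT and ST, with cytotoxicity read by fluorescence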
[17] = system: BJ; experiment: BJ-TERT fibroblast viability loss – cell-based, RAS-independent, luminescence, dose response (AID 1933); assay type: functional; details: Homo sapiens
[18] = system: BJ; experiment: cells; assay type: functional, cell-based; details: Homo sapiens
[19] = DRD fibroblast viability loss – cell-based, non-viral oncogenic, luminescence, dose response (AID 1934); assay type: functional; details: Homo sapiens
[20] = Luminescence Cell-Based Dose Retest to Confirm Activators of 5'UTR Stem-Loop Driven Alpha-Synuclein mRNA Translation in H4 Neuroglioblastoma Cells. [Related pubchem assays (depositor defined):AID1813, AID1829]; assay type: functional
[21] = system: BJ; experiment: BJ-TERT-LT-ST fibroblast viability loss – cell-based, RAS-independent, luminescence, dose response (AID 1935); assay type: functional; details: Homo sapiens;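 further: BJ fibroblasts immortalized with TERT plus LT and ST oncogenes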
[22] = alpha-synuclein stem-loop luciferase translation blockers – H4 neuroglioma cells, luminescence, confirmation (AID 1988); assay type: functional, cell-based
[23] = target: T2, Short transient receptor potential channel 4 (Mus musculus, UniProt Q9QUQ5); experiment: calcium entry via TRPC4 opening agents – cell-based, HEK293 TRPC4/mu-opioid, Fluo-4 calcium, dose response (AID 434937); assay type: functional
T2 sequence (Q9QUQ5 whole entry): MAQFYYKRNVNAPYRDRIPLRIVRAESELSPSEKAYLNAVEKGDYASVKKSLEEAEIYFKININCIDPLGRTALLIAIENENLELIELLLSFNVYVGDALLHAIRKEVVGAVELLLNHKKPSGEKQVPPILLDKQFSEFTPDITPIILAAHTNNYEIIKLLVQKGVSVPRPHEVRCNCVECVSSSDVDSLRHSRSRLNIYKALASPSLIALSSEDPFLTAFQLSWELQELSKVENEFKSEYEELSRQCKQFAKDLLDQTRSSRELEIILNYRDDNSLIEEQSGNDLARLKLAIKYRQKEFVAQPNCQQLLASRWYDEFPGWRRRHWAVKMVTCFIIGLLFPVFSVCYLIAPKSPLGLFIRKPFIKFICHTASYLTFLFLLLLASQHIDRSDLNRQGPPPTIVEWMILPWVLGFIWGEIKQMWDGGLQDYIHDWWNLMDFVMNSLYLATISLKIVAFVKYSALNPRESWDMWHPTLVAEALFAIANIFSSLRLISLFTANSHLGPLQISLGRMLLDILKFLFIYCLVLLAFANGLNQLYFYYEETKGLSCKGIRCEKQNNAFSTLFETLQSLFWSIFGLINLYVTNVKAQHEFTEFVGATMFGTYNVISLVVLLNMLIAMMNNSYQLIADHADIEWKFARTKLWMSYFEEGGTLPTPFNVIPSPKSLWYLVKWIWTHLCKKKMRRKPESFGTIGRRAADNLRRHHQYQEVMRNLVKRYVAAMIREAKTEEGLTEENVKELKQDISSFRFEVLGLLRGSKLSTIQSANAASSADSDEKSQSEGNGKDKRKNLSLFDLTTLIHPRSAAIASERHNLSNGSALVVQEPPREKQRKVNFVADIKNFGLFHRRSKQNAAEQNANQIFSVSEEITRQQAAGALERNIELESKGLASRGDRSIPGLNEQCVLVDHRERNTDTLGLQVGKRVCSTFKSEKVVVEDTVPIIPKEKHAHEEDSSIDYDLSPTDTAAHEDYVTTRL

[24] = target: T3, DNA repair protein RAD52 homolog (Homo sapiens, UniProt P43351); assay type: functional, biochemical
T3 sequence (P43351 whole entry): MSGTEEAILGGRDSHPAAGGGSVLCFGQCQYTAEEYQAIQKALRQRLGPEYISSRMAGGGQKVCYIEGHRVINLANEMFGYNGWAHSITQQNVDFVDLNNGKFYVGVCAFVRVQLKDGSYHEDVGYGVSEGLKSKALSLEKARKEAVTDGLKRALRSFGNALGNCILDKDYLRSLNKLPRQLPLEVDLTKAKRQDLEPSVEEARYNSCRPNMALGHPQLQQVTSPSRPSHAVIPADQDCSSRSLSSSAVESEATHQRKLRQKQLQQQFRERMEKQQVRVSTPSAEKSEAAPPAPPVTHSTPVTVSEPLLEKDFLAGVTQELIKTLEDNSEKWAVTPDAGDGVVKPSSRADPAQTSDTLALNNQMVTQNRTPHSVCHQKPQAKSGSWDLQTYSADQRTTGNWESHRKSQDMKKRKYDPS

[25] = target: CAAX prenyl protease 2 (Saccharomyces cerevisiae S288c, UniProt Q03530); assay type: biochemical
[26] = target: Trypsin (Sus scrofa, UniProt P00761); experiment: trypsin protease activity blockade – biochemical, quenched peptide fluorescence, cherry-pick, selectivity assay for Rce1 protease inhibitor project, dose response (AID 488789)
[27] = system: T-cell; experiment: loss of vesicle association with mouse CD8+ T cells – mouse 2C CD8+ T cells, flow cytometry, dose response (AID 485284); assay type: functional

T1 sequence (P98170 whole entry): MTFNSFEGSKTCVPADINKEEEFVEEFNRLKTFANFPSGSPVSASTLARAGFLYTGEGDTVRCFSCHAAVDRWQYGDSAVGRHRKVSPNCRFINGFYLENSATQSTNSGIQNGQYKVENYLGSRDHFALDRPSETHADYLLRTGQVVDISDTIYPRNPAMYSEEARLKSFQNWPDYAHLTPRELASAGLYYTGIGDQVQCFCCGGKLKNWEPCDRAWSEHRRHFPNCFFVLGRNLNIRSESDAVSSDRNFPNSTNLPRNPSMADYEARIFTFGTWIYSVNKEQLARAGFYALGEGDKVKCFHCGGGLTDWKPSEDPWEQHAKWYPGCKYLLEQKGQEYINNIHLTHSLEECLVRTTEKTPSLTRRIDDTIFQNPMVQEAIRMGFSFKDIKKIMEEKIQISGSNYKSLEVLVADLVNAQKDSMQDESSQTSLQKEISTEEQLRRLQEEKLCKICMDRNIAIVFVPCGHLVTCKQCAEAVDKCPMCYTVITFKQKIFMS
Trypsin, sequence (P00761 whole entry): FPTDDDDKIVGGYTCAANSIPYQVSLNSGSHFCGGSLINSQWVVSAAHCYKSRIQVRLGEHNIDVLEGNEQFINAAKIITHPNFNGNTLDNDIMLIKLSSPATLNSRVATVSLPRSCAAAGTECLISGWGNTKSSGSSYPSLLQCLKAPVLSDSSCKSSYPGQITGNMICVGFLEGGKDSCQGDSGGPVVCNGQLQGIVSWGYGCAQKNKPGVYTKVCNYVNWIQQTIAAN
CAAX prenyl protease 2, sequence (Q03530 whole entry): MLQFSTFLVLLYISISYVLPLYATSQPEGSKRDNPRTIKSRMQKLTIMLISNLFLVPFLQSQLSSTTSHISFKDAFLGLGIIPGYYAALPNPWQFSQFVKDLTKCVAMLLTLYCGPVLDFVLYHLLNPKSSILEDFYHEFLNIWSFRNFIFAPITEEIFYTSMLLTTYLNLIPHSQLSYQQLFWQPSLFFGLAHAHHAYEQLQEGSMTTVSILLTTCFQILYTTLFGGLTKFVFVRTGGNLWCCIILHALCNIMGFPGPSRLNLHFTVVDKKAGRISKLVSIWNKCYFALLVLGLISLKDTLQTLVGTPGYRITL
Beta-galactosidase, sequence (Q8VNN2 whole entry): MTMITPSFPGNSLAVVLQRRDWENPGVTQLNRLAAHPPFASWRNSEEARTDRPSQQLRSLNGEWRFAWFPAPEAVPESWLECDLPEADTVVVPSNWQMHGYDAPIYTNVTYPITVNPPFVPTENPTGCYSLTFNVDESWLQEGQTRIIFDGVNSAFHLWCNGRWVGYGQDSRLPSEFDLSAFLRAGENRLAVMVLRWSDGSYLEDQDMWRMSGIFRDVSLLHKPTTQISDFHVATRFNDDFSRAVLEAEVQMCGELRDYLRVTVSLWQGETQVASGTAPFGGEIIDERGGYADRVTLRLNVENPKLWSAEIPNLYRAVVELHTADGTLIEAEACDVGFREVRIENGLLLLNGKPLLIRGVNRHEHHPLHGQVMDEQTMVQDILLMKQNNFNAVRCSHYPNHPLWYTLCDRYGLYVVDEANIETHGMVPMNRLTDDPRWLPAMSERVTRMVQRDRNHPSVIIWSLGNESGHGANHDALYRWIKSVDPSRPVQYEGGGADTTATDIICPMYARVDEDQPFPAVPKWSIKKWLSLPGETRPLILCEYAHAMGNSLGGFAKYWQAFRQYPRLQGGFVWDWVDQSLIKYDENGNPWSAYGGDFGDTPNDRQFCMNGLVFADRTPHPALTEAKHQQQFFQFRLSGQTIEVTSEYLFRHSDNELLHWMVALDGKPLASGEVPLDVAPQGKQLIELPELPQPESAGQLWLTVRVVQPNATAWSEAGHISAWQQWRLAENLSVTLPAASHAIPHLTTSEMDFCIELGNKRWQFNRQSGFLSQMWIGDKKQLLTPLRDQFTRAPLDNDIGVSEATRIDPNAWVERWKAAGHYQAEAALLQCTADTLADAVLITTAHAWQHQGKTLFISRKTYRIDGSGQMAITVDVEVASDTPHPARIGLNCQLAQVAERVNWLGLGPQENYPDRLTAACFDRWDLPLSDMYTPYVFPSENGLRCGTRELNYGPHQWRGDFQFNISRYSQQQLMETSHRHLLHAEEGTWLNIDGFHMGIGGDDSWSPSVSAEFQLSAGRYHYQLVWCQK

Cc1cc(C)c(OCC(=O)Nc2nc(-c3ccccn3)cs2)c(C)c1
active: EC50 [1] 2470 nM | EC50 [2] 2750 nM | IC50 [3] 10000 nM | EC50 [4] 8870 nM | EC50 [5] 5710 nM
inactive: IC50 [6] > 66600 nM

COc1ccc2c(C)cc(SCC(=O)Nc3ccc(Cl)cn3)nc2c1
inactive: IC50 [8] > 100000 nM
> 100000 nM (not active): IC50 [7]

CC(=O)O[C@@]12CO[C@@H]1C[C@H](O)[C@@]1(C)C(=O)[C@H](O)C3=C(C)[C@@H](OC(=O)[C@H](O)[C@@H](NC(=O)c4ccccc4)c4ccccc4)C[C@](O)([C@@H](OC(=O)c4ccccc4)[C@H]21)C3(C)C
inconclusive: EC50 [10] 73100 nM | EC50 [13] 2020 nM
active: EC50 [9] 2400 nM | EC50 [11] 2300 nM | EC50 [12] 692 nM

COC(=O)C1CC23C=CCN4CCC5(c6ccccc6NC15C2C)C43 (stereo not drawn)
inconclusive: EC50 [10] 1070 nM | EC50 [20] 7370 nM | EC50 [21] 574 nM | EC50 [13] 1130 nM
active: EC50 [14] 2280 nM | EC50 [9] 1130 nM | EC50 [15] 4200 nM | EC50 [16] < 104 nM | EC50 [17] 612 nM | EC50 [11] 7370 nM | EC50 [12] 1070 nM | EC50 [18] 7770 nM | EC50 [19] 495 nM | EC50 [22] 134 nM

CCN(c1ccccc1)S(=O)(=O)c1ccc(C(=O)N(CCCN(C)C)c2nc3cc4c(cc3s2)OCO4)cc1
active: EC50 [23] 5310 nM | AC50 [24] 11100 nM

COc1ccc(C2CC(c3ccccc3)=NN2C(=O)c2ccc(Cl)c([N+](=O)[O-])c2)cc1 (stereo not drawn)
active: AC50 [25] 26100 nM | AC50 [26] 77700 nM | EC50 [4] 32600 nM

COC(=O)c1ccccc1NC(=O)C1CCN(C(=O)c2cc(OC)cc(OC)c2)CC1
active: EC50 [27] 641 nM
